Literature values as cited in publication PMC12150326 (The Journal of Organic Chemistry, 2025).
“And” between values parts separate entries of the source, which are not always exact repeats. Identical values can stand only once. Like-named read-outs stand apart in the source and are kept apart here.

Tests used:
Parameters in all cases: method as in NCI-60 database
[1] = system: CCRF-CEM; details: CCRF-CEM ref NCI-60 database, cited from earlier work
[2] = system: HL-60(TB); details: HL-60(TB) ref NCI-60 database, cited from earlier work
[3] = system: MOLT-4; details: MOLT-4 ref NCI-60 database, cited from earlier work
[4] = system: NCI-H23; details: NCI-H23 ref NCI-60 database, cited from earlier work
[5] = system: NCI-H522; details: NCI-H522 ref NCI-60 database, cited from earlier work
[6] = system: HT29; details: HT29 ref NCI-60 database, cited from earlier work
[7] = system: KM12; details: cited from earlier work
[8] = system: SF-539; details: SF-539 ref NCI-60 database, cited from earlier work
[9] = system: SNB-19; details: SNB-19 ref NCI-60 database, cited from earlier work
[10] = system: OVCAR-8; details: OVCAR-8 ref NCI-60 database, cited from earlier work
[11] = system: SK-OV-3; details: SK-OV-3 ref NCI-60 database, cited from earlier work
[12] = system: TK-10; details: TK-10 ref NCI-60 database, cited from earlier work
[13] = system: MDA-MB-231/ATCC; details: MDA-MB-231/ATCC ref NCI-60 database, cited from earlier work
[14] = system: HS 578T; details: HS 578T ref NCI-60 database; cited from earlier work
[15] = system: T-47D; details: T-47D ref NCI-60 database, cited from earlier work
[16] = system: HOP-18; details: HOP-18 ref NCI-60 database; cited from earlier work
[17] = system: LXFL 529; details: LXFL 529 ref NCI-60 database, cited from earlier work
[18] = system: MDA-N; details: MDA-N ref NCI-60 database, cited from earlier work
[19] = system: RXF-631; details: RXF-631 ref NCI-60 database, cited from earlier work
[20] = KM12 ref NCI-60 database, listed as 757/9

In the case of `COc1cc2c(c(OC)c1OC)-c1ccc(OC)c(=O)cc1[C@@H](NC(C)=O)CC2` [Colchicine, (−)-Colchicine], the GI50 [1] is listed as 20 nM, the Log10GI50 [1] is listed as -7.82 Molar and the Log10GI50 ([1]; listed as 757/1) is listed as -7.39 Molar. For the same compound, the Log10LC50 ([1]; listed as 757/9) was less than -8.00 Molar, the Log10TGI ([1]; listed as 757/9) was less than -8.00 Molar and the Log10GI50 ([1]; listed as 757/21) was < -8.00 Molar and -7.93 Molar and -7.82 Molar. The Log10LC50 ([1]; listed as 757/21) was greater than -4.00 Molar, the Log10TGI ([1]; listed as 757/21) was greater than -4.00 Molar and the GI50 [2] was 10 nM. For the same compound, the Log10GI50 [2] was -7.89 Molar, the Log10LC50 [2] was greater than -4.00 Molar and the Log10GI50 ([2]; listed as 757/1) was -7.58 Molar. The Log10GI50 ([2]; listed as 757/21) was < -8.00 Molar and -7.89 Molar, the GI50 [3] was 40 nM and the Log10GI50 [3] was -7.45 Molar. For the same compound, the Log10GI50 ([3]; listed as 757/9) was -7.60 Molar, the Log10LC50 ([3]; listed as 757/9) was -4.90 Molar and the Log10TGI ([3]; listed as 757/9) was less than -8.00 Molar. For the same compound, the Log10LC50 ([3]; listed as 757/21) was greater than -4.00 Molar, the Log10TGI ([3]; listed as 757/21) was greater than -4.00 Molar and the GI50 [4] was 30 nM. For the same compound, the Log10GI50 [4] was -7.54 Molar, the Log10LC50 ([4]; listed as 757/9) was -7.14 Molar and the Log10LC50 ([4]; listed as 757/21) was greater than -4.00 Molar. The Log10TGI ([4]; listed as 757/21) was greater than -4.00 Molar, the GI50 [5] was 10 nM and the Log10GI50 [5] was -7.84 Molar. The Log10LC50 [5] was greater than -4.00 Molar, the Log10GI50 ([5]; listed as 757/1) was -7.64 Molar and the Log10TGI ([5]; listed as 757/1) was -7.26 Molar. For the same compound, the Log10TGI ([5]; listed as 757/9) was -7.46 Molar, the Log10GI50 ([5]; listed as 757/21) was < -8.00 Molar and -7.98 Molar and -7.84 Molar and the GI50 [6] was 30 nM. For the same compound, the Log10GI50 [6] was -7.55 Molar, the Log10LC50 [6] was greater than -4.00 Molar and the Log10TGI ([6]; listed as 757/1) was -4.61 Molar. For the same compound, the Log10GI50 ([6]; listed as 757/9) was -7.32 Molar, the Log10TGI ([6]; listed as 757/9) was -6.43 Molar and the GI50 ([7]; KM12 (printed KM29) ref NCI-60 database) was 40 nM. The Log10GI50 ([7]; KM12 ref NCI-60 database) was -7.35 Molar, the Log10GI50 ([7]; KM12 ref NCI-60 database, listed as 757/1) was -7.65 Molar and the Log10GI50 [7, 20] was -7.67 Molar. The Log10LC50 [7, 20] was -7.04 Molar, the Log10TGI [7, 20] was -7.95 Molar and the Log10LC50 ([7]; KM12 ref NCI-60 database, listed as 757/21) was greater than -4.00 Molar. The GI50 [8] was 30 nM, the Log10GI50 [8] was -7.54 Molar and the Log10GI50 ([8]; listed as 757/1) was -7.48 Molar. For the same compound, the Log10TGI ([8]; listed as 757/9) was -6.82 Molar, the Log10LC50 ([8]; listed as 757/21) was > -4.00 Molar and -4.05 Molar and the GI50 [9] was 40 nM. The Log10GI50 [9] was -7.43 Molar, the Log10LC50 [9] was greater than -4.00 Molar and the Log10GI50 ([9]; listed as 757/1) was less than -8.00 Molar. For the same compound, the Log10GI50 ([9]; listed as 757/9) was -7.55 Molar, the Log10GI50 ([9]; listed as 757/21) was -7.22 Molar and -7.43 Molar and the Log10TGI ([10]; listed as 757/1) was greater than -4.00 Molar. The Log10LC50 ([10]; listed as 757/9) was -7.11 Molar, the Log10LC50 ([10]; listed as 757/21) was greater than -4.00 Molar and the Log10LC50 [11] was greater than -4.00 Molar. The Log10GI50 ([11]; listed as 757/1) was -4.43 Molar, the Log10TGI ([11]; listed as 757/1) was -4.07 Molar and -4.21 Molar and the Log10GI50 ([11]; listed as 757/9) was -7.55 Molar and -7.81 Molar. For the same compound, the Log10TGI ([11]; listed as 757/9) was -7.17 Molar, the Log10GI50 ([11]; listed as 757/21) was -7.71 Molar and -7.65 Molar and the GI50 [12] was greater than 100000 nM. The Log10GI50 [12] was greater than -4 Molar, the Log10LC50 [12] was greater than -4.00 Molar and the Log10TGI [12] was greater than -4.00 Molar. The Log10GI50 ([12]; listed as 757/1) was greater than -4.00 Molar, the Log10GI50 ([12]; listed as 757/9) was -7.50 Molar and the Log10GI50 ([12]; listed as 757/21) was -4.66 Molar. The GI50 [13] was 7080 nM, the Log10GI50 [13] was -5.15 Molar and the Log10LC50 [13] was greater than -4.00 Molar. For the same compound, the Log10TGI [13] was greater than -4.00 Molar, the Log10GI50 ([13]; listed as 757/9) was < -8.00 Molar and -7.78 Molar and the Log10GI50 ([13]; listed as 757/21) was -5.15 Molar. For the same compound, the Log10LC50 [14] was greater than -4.00 Molar, the GI50 [15] was 75700 nM and the Log10GI50 [15] was -4.12 Molar. The Log10LC50 [15] was greater than -4.00 Molar, the Log10TGI [15] was greater than -4.00 Molar and the Log10GI50 ([15]; listed as 757/9) was greater than -4.00 Molar. The Log10GI50 ([15]; listed as 757/21) was -4.21 Molar, the Log10GI50 [16] was greater than -4.00 Molar and the Log10LC50 [16] was greater than -4.00 Molar. The Log10TGI [16] was greater than -4.00 Molar, the Log10LC50 [17] was greater than -4.00 Molar and the Log10TGI [17] was greater than -4.00 Molar. The Log10GI50 ([17]; listed as 757/21) was < -8.00 Molar and -7.80 Molar, the Log10GI50 [18] was less than -8.00 Molar and the Log10LC50 [18] was greater than -4.00 Molar. The Log10TGI ([18]; listed as 757/9) was < -8.00 Molar and -7.91 Molar, the Log10TGI ([18]; listed as 757/21) was -4.25 Molar and the Log10LC50 [19] was greater than -4.00 Molar. For the same compound, the Log10TGI [19] was greater than -4.00 Molar and the Log10GI50 ([19]; listed as 757/21) was -7.45 Molar.
